Results on 43 molecules are retold here after paper PMC5232348, “Molecular and Functional Characterization of Three Odorant-Binding Protein from Periplaneta americana” (PLoS ONE, 2017).

One experiment has as its target PameOBP1 (Periplaneta americana, UniProt B6E9U7). The experiment in a line: Competitive fluorescence binding assay (1-NPN displacement), recombinant PameOBP1. An excerpt:
(§1) The PameOBPs were expressed by using Escherichia coli expression system. To generate properly folded protein, the signal peptide predicted by SignalIP 4.1 [18] was removed. The two PameOBPs were amplified by gene special primers (S1 Table) with the cDNA as the template. The purified PCR products were ligated into expression vector pGEX-4T-1 using In-Fusion® HD Cloning Kit (Clontech, Mountain View, CA) according to the manufacturer’s instructions. The recombinant plasmid was transformed into E. coli BL21 (DE3) cells, and then expression and purification was performed according to a previously reported protocol. Recombinant proteins in the supernatant were purified by an affinity chromatography column GSTrap FF (GE Healthcare, Piscataway, NJ, USA). The GST tags were cleaved from recombinant proteins using 400 μL of thrombin (1U/μL) while loaded on GSTrap FF column at 25°C for 10 h and allowed 12 h. After that, the recombinant proteins were eluted with PBS buffer. Finally, the eluted proteins were desalted using HiTrap Desalting (GE Healthcare), lyophilized, and stored at −80°C until use.
(§2) Emission fluorescence spectra were measured on a Hitachi F-4500 fluorescence spectrophotometer following our previous studies. Firstly, dissociation constants of the PameOBPs for N-phenyl-1-naphtylamine (1-NPN) were calculated to determine the suitability of 1-NPN as a fluorescence reporter. […] The binding data were analyzed following our previous studies.

Another experiment addresses PameOBP2 (Periplaneta americana, UniProt B6E9U8). The experiment in a line: Competitive fluorescence binding assay (1-NPN displacement), recombinant PameOBP2.
Excerpt: as §1, §2

For the next experiment, the target named is PameOBP3 (Periplaneta americana, UniProt B6E9U9). The experiment in a line: Competitive fluorescence binding assay (1-NPN displacement), recombinant PameOBP3.
Excerpt: as §1, §2

Where [1] appears, read: 2 μM 1-NPN as fluorescent reporter, competitor 0.25–2.5 μM or 2–40 μM, read-out: PameOBP1 IC50.
Where [2] appears, read: 2 μM 1-NPN as fluorescent reporter, competitor 0.25–2.5 μM or 2–40 μM, read-out: PameOBP1 Ki.
Setting [3] is: 2 μM 1-NPN as fluorescent reporter, competitor 0.25–2.5 μM or 2–40 μM, read-out: PameOBP2 IC50.
Setting [4] is: 2 μM 1-NPN as fluorescent reporter, competitor 0.25–2.5 μM or 2–40 μM, read-out: PameOBP2 Ki.
Setting [5] is: 2 μM 1-NPN as fluorescent reporter, competitor 0.25–2.5 μM or 2–40 μM, read-out: PameOBP3 Ki.
Where [6] appears, read: PameOBP1 Ki, 2 μM 1-NPN as fluorescent reporter, competitor 0.25–2.5 μM or 2–40 μM.
[7] abbreviates: PameOBP2 Ki, 2 μM 1-NPN as fluorescent reporter, competitor 0.25–2.5 μM or 2–40 μM.

Where a name gives a salt, the structure may show the parent alone. Read-outs that look alike come from different tables or passages of the source.

PameOBP3, sequence (B6E9U9 entry or part of it): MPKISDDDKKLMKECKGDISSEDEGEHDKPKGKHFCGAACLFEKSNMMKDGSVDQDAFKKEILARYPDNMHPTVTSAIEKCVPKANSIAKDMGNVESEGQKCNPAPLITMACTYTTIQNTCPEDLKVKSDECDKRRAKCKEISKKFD
PameOBP2, sequence (B6E9U8 entry or part of it): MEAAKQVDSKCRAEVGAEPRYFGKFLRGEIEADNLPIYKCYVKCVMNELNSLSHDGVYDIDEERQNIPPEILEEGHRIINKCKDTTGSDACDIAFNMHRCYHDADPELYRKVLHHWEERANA
PameOBP1, sequence (B6E9U7 entry or part of it): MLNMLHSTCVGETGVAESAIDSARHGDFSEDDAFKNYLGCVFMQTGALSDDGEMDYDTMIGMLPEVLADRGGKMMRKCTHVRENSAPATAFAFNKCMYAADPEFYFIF

Broadly, the IC50 is the concentration that gives 50% inhibition. What is called Ki is a dissociation constant, usually derived from enzyme kinetics or from competition with a known ligand. Turning to `C=CC(C)(O)CCC=C(C)CCC=C(C)C` (mixture of isomers) [Nerolidol], the IC50 at PameOBP1 (setting [1]) is more than 40 µM; on PameOBP2 (setting [3]), 32.9 ± 4.21 µM. In addition, the Ki is more than 40 µM on PameOBP1 (setting [2]) and 26.6 ± 2.79 µM at PameOBP2 (setting [4]).

Take `CCCCCCO` [1-hexanol]: the inhibition constant (Ki) on PameOBP3 (setting [5]), at PameOBP1 (setting [2]) and on PameOBP2 (setting [4]) was more than 40 µM each time.

Take `CCCCCCCCCCCC(C)=O` [2-Tridecanone]: the IC50 on PameOBP1 (setting [1]) came out at 2.02 ± 0.16 µM; on PameOBP2 (setting [3]) it was 1.52 ± 0.16 µM. For the same molecule, the inhibitory constant (Ki) at PameOBP1 (setting [2]) was found to be 1.85 ± 0.17 µM; at PameOBP2 (setting [4]), 1.23 ± 0.08 µM.

Consider `CCCCCC(C)O` (centres unmarked) [2-heptanol], for which the Ki on PameOBP3 (setting [5]), on PameOBP1 (setting [2]) and at PameOBP2 (setting [4]) was more than 40 µM in each case.

Regarding `CCCCCC(C)=O` [2-heptanone], the Ki at PameOBP3 (setting [5]), on PameOBP1 (setting [2]) and at PameOBP2 (setting [4]) was more than 40 µM each time.

In the case of `CCCCC(C)=O` [2-hexanone], the Ki on PameOBP3, at PameOBP1 (setting [6]) and on PameOBP2 (setting [7]) was more than 40 µM throughout.

In the case of `CCCCCCCCC(CO)CCCCCC` (centres unmarked) [2-hexyl-1-decanol], the Ki on PameOBP3 (setting [5]), at PameOBP1 (setting [2]) and at PameOBP2 (setting [4]) was more than 40 µM in each case.

Consider `CCCCCCCCCCCCCC(C)=O` [2-pentadecanone], for which the inhibition constant Ki on PameOBP3 (setting [5]), at PameOBP1 (setting [2]) and at PameOBP2 (setting [4]) was more than 40 µM throughout.

Turning to `CCCC(O)CC` (centres unmarked) [3-hexanol], the Ki on PameOBP3 (setting [5]), at PameOBP1 (setting [2]) and at PameOBP2 (setting [4]) was more than 40 µM each time.

With `CCCC(=O)CC` [3-hexanone], the Ki at PameOBP3 (setting [5]), at PameOBP1 (setting [2]) and at PameOBP2 (setting [4]) was more than 40 µM throughout.

For the molecule `CC(=O)CCC=C(C)C` [6-methyl-5-hepten-2-one], the Ki on PameOBP3, at PameOBP1 (setting [6]) and on PameOBP2 (setting [7]) was more than 40 µM each time.

Take `C[C@@H]1CC[C@H]2C(C)(C)[C@H]3C[C@@]12CC[C@@]3(C)O` [(+)-cedrol]: the Ki on PameOBP3, at PameOBP1 (setting [6]) and at PameOBP2 (setting [7]) was more than 40 µM throughout.

Take `CC(=O)/C=C/C1=C(C)CCCC1(C)C` [Beta- ionone]: the figures for the IC50 at PameOBP1 and at PameOBP2 were 15.8 ± 2.1 µM and 15 ± 1.1 µM, respectively. Further, the Ki at PameOBP1 (setting [6]) worked out at 14.4 ± 1.6 µM; on PameOBP2 (setting [7]), 12.2 ± 0.9 µM.

Turning to `CC/C=C\CCO` [Cis-3-hexenol], the inhibitory constant (Ki) on PameOBP3, at PameOBP1 (setting [6]) and on PameOBP2 (setting [7]) was more than 40 µM throughout.

As to `CC/C=C\CCOC(=O)CCCCC` [Cis-3-hexenyl hexanoate], the figures for the IC50 on PameOBP1 (setting [1]) and at PameOBP2 (setting [3]) were 24.6 ± 1.9 µM and more than 40 µM, respectively. In addition, the Ki on PameOBP1 (setting [2]) is 22.5 ± 2.6 µM; at PameOBP2 (setting [4]), more than 40 µM.

In the case of `CC(C)=CCC/C(C)=C/CC/C(C)=C/CO` [Farnesol], the IC50 on PameOBP1 (setting [1]) is 1.01 ± 0.09 µM; on PameOBP2 (setting [3]), 0.65 ± 0.07 µM. Further, the results for the Ki at PameOBP1 (setting [2]) and at PameOBP2 (setting [4]) were 0.92 ± 0.06 µM and 0.53 ± 0.06 µM, respectively.

Take `CC(=O)OC/C=C(\C)CCC=C(C)C` [Geranyl acetate]: the half-maximal inhibitory concentration (IC50) at PameOBP1 (setting [1]) is more than 40 µM; at PameOBP2 (setting [3]), 40 ± 3.16 µM. The figures for the Ki at PameOBP1 (setting [2]) and on PameOBP2 (setting [4]) were more than 40 µM and 32.6 ± 2.95 µM, respectively.

Take `CC(=O)CC/C=C(\C)CCC=C(C)C` [Geranylacetone]: the half-maximal inhibitory concentration (IC50) at PameOBP1 (setting [1]) is more than 40 µM; at PameOBP2 (setting [3]), 8.62 ± 0.68 µM. Also, the figures for the Ki on PameOBP1 (setting [2]) and on PameOBP2 (setting [4]) were more than 40 µM and 6.97 ± 0.72 µM, respectively.

`CCCCCCCCCCCCCC` [Tetradecane]: the half-inhibitory concentration (IC50) was more than 40 µM at PameOBP1 (setting [1]) and 1.19 ± 0.09 µM on PameOBP2 (setting [3]). Besides, the Ki on PameOBP2 (setting [4]) stood at 0.96 ± 0.1 µM.

`C=CC(C)(O)CC/C=C(\C)CCC=C(C)C` (stereo not drawn) [Trans-nerolidol]: the results for the IC50 on PameOBP1 (setting [1]) and at PameOBP2 (setting [3]) were more than 40 µM and 15.6 ± 1.3 µM, respectively. Also, the Ki at PameOBP1 (setting [2]) was more than 40 µM; on PameOBP2 (setting [4]) it was 12.6 ± 0.98 µM.

In the case of `CC(=O)c1ccccc1` [acetophenone], the Ki on PameOBP3 (setting [5]), on PameOBP1 (setting [2]) and at PameOBP2 (setting [4]) was more than 40 µM in each case.

Regarding `CC1=CC[C@H](C(C)C)C=C1` [alpha-phellandrene], the Ki on PameOBP3, at PameOBP1 (setting [6]) and on PameOBP2 (setting [7]) was more than 40 µM in each case.

With `O=Cc1ccccc1` [benzaldehyde], the Ki on PameOBP3, on PameOBP1 (setting [6]) and at PameOBP2 (setting [7]) was more than 40 µM in each case.

`CC(=O)OCc1ccccc1` [benzyl acetate]: the Ki at PameOBP3 (setting [5]), at PameOBP1 (setting [2]) and on PameOBP2 (setting [4]) was more than 40 µM in each case.

Take `OCc1ccccc1` [benzyl alcohol]: the Ki on PameOBP3, at PameOBP1 (setting [6]) and on PameOBP2 (setting [7]) was more than 40 µM each time.

As to `C=C1CC/C=C(\C)CC[C@@H]2[C@@H]1CC2(C)C` [beta-caryophyllene], the Ki on PameOBP3, at PameOBP1 (setting [6]) and on PameOBP2 (setting [7]) was more than 40 µM throughout.

For the molecule `CCCCOC(C)=O` [butyl acetate], the Ki on PameOBP3, at PameOBP1 (setting [6]) and at PameOBP2 (setting [7]) was more than 40 µM each time.

Turning to `CCCCOC=O` [butyl formate], the inhibition constant (Ki) on PameOBP3 (setting [5]), on PameOBP1 (setting [2]) and at PameOBP2 (setting [4]) was more than 40 µM each time.

For `C=C1C2CCC(C2)C1(C)C` (centres unmarked) [camphene], the Ki at PameOBP3 (setting [5]), on PameOBP1 (setting [2]) and on PameOBP2 (setting [4]) was more than 40 µM throughout.

Turning to `CCC/C=C\CO` [cis-2-hexen-1-ol], the inhibitory constant (Ki) at PameOBP3, at PameOBP1 (setting [6]) and on PameOBP2 (setting [7]) was more than 40 µM in each case.

For `CC/C=C\CC=O` [cis-3-hexenal], the Ki at PameOBP3 (setting [5]), on PameOBP1 (setting [2]) and on PameOBP2 (setting [4]) was more than 40 µM each time.

As to `CC/C=C\CCOC(C)=O` [cis-3-hexenyl acetate], the inhibitory constant (Ki) on PameOBP3 (setting [5]), at PameOBP1 (setting [2]) and on PameOBP2 (setting [4]) was more than 40 µM throughout.

For `CC/C=C\CCOC(=O)CCC` [cis-3-hexenyl butyrate], the Ki at PameOBP3 (setting [5]), at PameOBP1 (setting [2]) and at PameOBP2 (setting [4]) was more than 40 µM in each case.

Consider `CC(C)c1ccccc1` [cumene], for which the Ki at PameOBP3, at PameOBP1 (setting [6]) and on PameOBP2 (setting [7]) was more than 40 µM throughout.

In the case of `CCCCCCCCCC=O` [decanal], the Ki at PameOBP3 (setting [5]), at PameOBP1 (setting [2]) and at PameOBP2 (setting [4]) was more than 40 µM in each case.

`CCCCCCCCCCCC` [dodecane]: the Ki on PameOBP3 (setting [5]), at PameOBP1 (setting [2]) and at PameOBP2 (setting [4]) was more than 40 µM in each case.

Regarding `CCOC(=O)c1ccccc1` [ethyl benzoate], the Ki on PameOBP3, on PameOBP1 (setting [6]) and at PameOBP2 (setting [7]) was more than 40 µM in each case.

Take `CCCC(=O)OCC` [ethyl butyrate]: the inhibition constant Ki on PameOBP3 (setting [5]), at PameOBP1 (setting [2]) and at PameOBP2 (setting [4]) was more than 40 µM each time.

Consider `CCOC(=O)CC` [ethyl propionate], for which the Ki on PameOBP3 (setting [5]), on PameOBP1 (setting [2]) and at PameOBP2 (setting [4]) was more than 40 µM in each case.

In the case of `CCc1ccccc1` [ethylbenzene], the Ki at PameOBP3, at PameOBP1 (setting [6]) and on PameOBP2 (setting [7]) was more than 40 µM throughout.

For `CC12CCC(CC1)C(C)(C)O2` [eucalyptol], the Ki at PameOBP3 (setting [5]), at PameOBP1 (setting [2]) and at PameOBP2 (setting [4]) was more than 40 µM each time.

In the case of `CC(C)=CCC/C(C)=C/CO` [geraniol], the inhibition constant (Ki) on PameOBP3, on PameOBP1 (setting [6]) and at PameOBP2 (setting [7]) was more than 40 µM each time.

For the molecule Farnesene, the Ki at PameOBP1 (2 μM 1-NPN as fluorescent reporter, competitor 0.25–2.5 μM or 2–40 μM, listed as farnesene, read-out: PameOBP1 Ki) was less than 2 µM; on PameOBP1 (setting [2]), 1.04 ± 0.1 µM; on PameOBP2 (2 μM 1-NPN as fluorescent reporter, competitor 0.25–2.5 μM or 2–40 μM, listed as farnesene, read-out: PameOBP2 Ki) it was less than 2 µM; on PameOBP2 (setting [4]), 0.52 ± 0.03 µM. Further, the IC50 is 1.14 ± 0.12 µM on PameOBP1 (setting [1]) and 0.64 ± 0.08 µM on PameOBP2 (setting [3]).
